{"source": "patent US9241976B2", "about": "“Use of HDL-related molecules to treat and prevent proinflammatory conditions” (THE REGENTS OF THE UNIVERSITY OF CALIFORNIA, priority 2011, dated 2016)", "key": {"[1]": {"tested_on": "NIH3T3 cells", "assay": "NIH3T3 cell viability, MTS assay", "format": "cell-based", "conditions": "10 μg/mL, 48 hours", "description": "CT26 and NIH3T3 cells (2,000 cells per well) were first cultured in complete medium in 96-well culture plates, and 24 hours later the medium was replaced with serum-free medium. […] Cells were incubated for an additional 48 hours and assayed for viability using MTS assays kit (Promega) according to the manufacturer's protocol."}, "[2]": {"tested_on": "CT26 cells", "assay": "Tumor-load study: CT26 flank tumors in BALB/c mice", "format": "in vivo, mouse", "conditions": "for flank tumor volume / flank tumor weight: Example 3, 10 mg/kg subcutaneous daily for 15 days", "method": "6-week-old BALB/c female mice were given a 100 μL subcutaneous injection of 1×10^6 CT26 cells prepared as a single cell suspension in PBS, and the mice were treated with bHDLor BHDLat 10 mg/kg administered subcutaneously (SQ) daily for 15 days. The mice were sacrificed and tumor weights were measured.\n6-week-old BALB/c female mice were given a 100 μl subcutaneous injection of 1×10^6 CT26 cells prepared as a single cell suspension in PBS, treated with peptide at 10 mg/kg by SQ daily for 15 days.\nThe mice were killed and tumor weights were measured. The tumor volumes were measured using the formula V=½ (L×W^2).\nSix-week-old BALB/c female mice were given a […] subcutaneous injection of 1×10^6 CT26 cells prepared as a single cell suspension in PBS, and the mice were treated with sc-4F or L-4F at 10 mg/kg administered subcutaneously daily for 15 days. The mice were sacrificed and tumor weights were measured."}, "[3]": {"tested_on": "CT26 cells", "assay": "CT26 cell viability, MTS assay", "conditions": "for Cell viability reduced by, compared with control: Example 3, CT26 cells, 10 μg/ml, 48 hours; for CT26 cell viability vs vehicle-treated controls: Example 6, MTS assay, within 48 hours of treatment", "description": "CT26 cell line derived from N-nitroso-N-methyl urethane-induced mouse colon carcinoma of BALB/c origin was purchased from the American Type Culture Collection (ATCC). CT26 cells (2,000 cells per well) were first cultured in complete medium in 96-well culture plates, and 24 hours later the medium was replaced with serum free medium. Following an overnight incubation, the cells were either treated with vehicle (control), or treated with 10 μg/mL of either bHDL. The bHDL were dissolved in H2O. Cells were incubated for an additional 48 hours and assayed for viability using the MTS assays kit (Promega) according to the manufacturer's protocol.\nCT26 cell line derived from N-nitroso-N-methyl urethane-induced mouse colon carcinoma of BALB/c origin was purchased from the American Type Culture Collection. CT26 cells (2,000 cells per well) were first cultured in complete medium in 96-well culture plates, and 24 hours later the medium was replaced with serum-free medium. Following an overnight incubation, the cells were either treated with vehicle (control) or treated with 10 mg/mL of either L-4F or G* peptide. The peptides were dissolved in H2O. Cells were incubated for an additional 48 hours and assayed for viability using the MTS assay kit (Promega) according to the manufacturer's protocol."}, "[4]": {"tested_on": "HIF-1α", "assay": "HIF-1α protein expression in human ovarian cancer cell lines, Western blot", "format": "cell-based", "conditions": "OV2008 cells; MG-132 10 μM 3 h, L-4F 10 μg/ml 1 h, insulin 200 nM 4 h", "method": "OV2008 cells were cultured in RPMI 1640 media with 10% fetal bovine serum, penicillin (100 U/ml), streptomycin (100 μg/ml), 1× minimal essential medium nonessential amino acid solution (Invitrogen, Carlsbad, Calif.), and insulin (0.25 U/ml) (Invitrogen). CAOV-3 cells were cultured in complete media consisting of Dulbecco's modified Eagle's medium with high glucose and L-glutamine (2 mM), 10% fetal bovine serum, penicillin (100 U/ml), streptomycin (100 μg/ml), and insulin (0.02 U/ml). To create hypoxic conditions, cells were transferred to a hypoxic chamber (model 3130; Thermo Fisher Scientific, Waltham, Mass.), where they were maintained at 37° C. in an atmosphere containing 5% CO2, 1% O2, and 94% N2. L-4F (the peptide Ac-D-W-F-K-A-F-Y-D-K-V-A-E-K-F-K-E-A-F-NH2 (SEQ ID NO: 12) synthesized from all L amino acids) was dissolved in water at 1 mg/ml (freshly prepared every time) and used between 1 and 10 μg/ml. L-5F was synthesized by Peptisyntha Inc. (Torrance, Calif.), dissolved in ABCT buffer (50 mM ammonium bicarbonate, pH 7.0, containing 0.1 mg/ml Tween 20) at 1 mg/ml, and diluted to the required concentrations before use. Cobalt chloride (CoCl2), insulin, cycloheximide (CHX), and N-(benzyloxycarbonyl)leucinylleucinylleucinal-Z-Leu-Leu-Leu-al (MG-132) were purchased from Sigma-Aldrich (St. Louis, Mo.). LPA (Avanti Polar Lipids, Alabaster, Ala.) in chloroform was dried as recommended by the manufacturer, dissolved in ethanol at a concentration of 20 mM as a stock solution, and diluted to the required concentrations in the corresponding cell culture media before use.\nWestern blot analyses were performed as described previously (Gao et al., 2011). In brief, cell lysates were collected in a lysis buffer containing 0.1 MNaCl, 5 mM EDTA, 50 μM sodium orthovanadate, 1% Triton X-100, and protease inhibitor tablet (Roche Diagnostics, Indianapolis, Ind.) in 50 mM Tris buffer, pH 7.5, loaded onto 4 to 12% Bis-Tris gel (Invitrogen), transferred to polyvinylidene difluoride membrane, and incubated with the appropriate antibodies. Anti-pThr^202/Tyr^204-Erk, anti-Erk, anti-pThr^389-p70 S6 kinase, anti-p70 S6 kinase, anti-pSer^473-Akt, and anti-Akt antibodies were purchased from Cell Signaling Technology (Danvers, Mass.); mouse anti-human HIF-1α antibody was purchased from BD Pharmingen (San Diego, Calif.); rabbit anti-mouse HIF-1α antibody was purchased from Abcam Inc. (Cambridge, Mass.); and anti-GAPDH antibody was purchased from Santa Cruz Biotechnology Inc. (Santa Cruz, Calif.)."}, "[5]": {"tested_on": "CT26 cells", "assay": "Pulmonary metastasis in vivo: CT26 lung tumors in BALB/c mice", "design": "species or system mouse", "conditions": "CT26 via tail vein", "method": "BALB/c mice were intravenously injected with 2×10^4 CT26 cells in 100 μL of PBS via tail vein injection and the mice were treated with bHDL at 10 mg/kg/day administered SQ for 3 weeks; or treated with bHDL at 100 mg/kg/day administered in a chow diet for 3 weeks. After 3 weeks treatment, the mice were sacrificed; lungs were harvested, weighed and fixed with Bouin's solution (Sigma). Tumor nodules on the lung surface were counted.\nBALB/c mice were intravenously injected with 2×10^4 CT26 cells in […] of PBS via tail vein injection and the mice were treated with L-4F or sc-4F at 10 mg/kg/d administered subcutaneously for 3 weeks, or treated with sc-4F or L-4F or G* peptide at 100 mg/kg/d administered in a chow diet for 3 weeks. After 3 weeks treatment, the mice were sacrificed; lungs were harvested, weighed, and fixed with Bouin solution (Sigma). Tumor nodules on the lung surface were counted."}, "[6]": {"tested_on": "APC^min/+ mice", "assay": "APC^min/+ mice study, intestinal tumors", "format": "in vivo", "conditions": "C57BL/6J-APC^min/+ mice; 100 mg/kg/d in mouse chow for 8 weeks", "method": "6-week-old APC^Min/+ male mice on a C57BL/6J background were treated with bHDL 100 mg/kg/day administered in a chow diet. After 8 weeks treatment, mice were sacrificed. The entire intestine was immediately removed, fixed in formalin and 70% ethanol. The intestine was opened and examined under a dissecting microscope to count and measure the tumors.\nSix-week-oldAPC^min/+ male mice on a C57BL/6J background were treated with L-4F or sc-4F at 100 mg/kg/d administered in a chow diet. After 8 weeks treatment, mice were sacrificed. The entire intestine was immediately removed, fixed in formalin and 70% ethanol. The intestine was opened and examined under a dissecting microscope to count and measure the tumors."}, "[7]": {"tested_on": "NIH3T3 cells", "assay": "UV-induced cell death, NIH3T3 cell viability", "format": "cell-based", "conditions": "pre-treatment 10 μg/ml for 24 hrs; UV 5, 10, 20 mJ/cm^2", "method": "NIH 3T3 ([…]) ells were seeded in 96 well plates in 4 separate plates. After 24 hrs, cells were starved overnight. Apo A-l was used at a concentration (10 μg/ml) to treat the cells for 24 hrs. After treatment of cells were washed with PBS. One plate was used as a control without UV treatment. The remaining three plates were used for UV treatment at 5, 10, and 20 mJ/cm^2. Following UV treatment, cells were given complete media and were cultured for another 24 hrs. Cell viability was measured for all the plates as described previously (Ganapathy E, et al., 2011, D-4F, an apoA-1 mimetic peptide inhibits proliferation and tumorigenicity of epithelial ovarian cancer cells by upregulating the antioxidant enzyme MnSOD, Int J Cancer 130:1071-1081)."}, "[8]": {"conditions": "10 mg/kg/d subcutaneously for 3 weeks"}, "[9]": {"conditions": "100 mg/kg/d in chow diet for 3 weeks"}}, "note": "Square brackets hold non-standard residues; d marks the D form. Ends that are not written are not given here. Peptide text beside a SMILES is read from it. * marks the point of attachment. Cbz = O=C(OCc1ccccc1)*; Aib = CC(C)(N)C(=O)O"}
{"molecule": "CC(=O)N[C@@H](CC(C)C)C(=O)N[C@@H](CCCNC(=N)N)C(=O)N[C@@H](CCCCN)C(=O)N[C@@H](CC(C)C)C(=O)N[C@@H](CCCNC(=N)N)C(=O)N[C@@H](CCCCN)C(=O)N[C@@H](CCCNC(=N)N)C(=O)N[C@@H](CC(C)C)C(=O)N[C@@H](CC(C)C)C(=O)N[C@@H](CCCNC(=N)N)C(=O)N[C@@H](CC(=O)O)C(=O)N[C@@H](Cc1c[nH]c2ccccc12)C(=O)N[C@@H](CC(C)C)C(=O)N[C@@H](CCCCN)C(=O)N[C@@H](C)C(=O)N[C@@H](Cc1ccccc1)C(=O)N[C@@H](Cc1ccc(O)cc1)C(=O)N[C@@H](CC(=O)O)C(=O)N[C@@H](CCCCN)C(=O)N[C@H](C(=O)NC(C)(C)C(=O)N[C@@H](CCC(=O)O)C(=O)N[C@@H](CCCCN)C(=O)N[C@@H](CC(C)C)C(=O)N[C@@H](CCCCN)C(=O)N[C@@H](CCC(=O)O)C(=O)NC(C)(C)C(=O)N[C@@H](Cc1ccccc1)C(N)=O)C(C)C", "note": "[28AA-2, LRKLRKRLLRDWLKAFYDKV-Aib-E-K-L-K-E-Aib-F] (HELM PEPTIDE1{[ac].L.R.K.L.R.K.R.L.L.R.D.W.L.K.A.F.Y.D.K.V.[Aib].E.K.L.K.E.[Aib].F.[am]}$$$$V2.0; N-terminus and C-terminus assumed)", "values": [{"measurement": "NIH3T3 cell viability", "setting": "[1]", "result": "not affected"}]}
{"molecule": "CC(=O)N[C@@H](CC(=O)O)C(=O)N[C@@H](Cc1c[nH]c2ccccc12)C(=O)N[C@@H](Cc1ccccc1)C(=O)N[C@@H](CCCCN)C(=O)N[C@@H](C)C(=O)N[C@@H](Cc1ccccc1)C(=O)N[C@@H](Cc1ccc(O)cc1)C(=O)N[C@@H](CC(=O)O)C(=O)N[C@@H](CCCCN)C(=O)N[C@H](C(=O)NC(C)(C)C(=O)N[C@@H](CCC(=O)O)C(=O)N[C@@H](CCCCN)C(=O)N[C@@H](Cc1ccccc1)C(=O)N[C@@H](CCCCN)C(=O)N[C@@H](CCC(=O)O)C(=O)NC(C)(C)C(=O)N[C@@H](Cc1ccccc1)C(N)=O)C(C)C", "note": "[L-4F2, Ac-D-W-F-K-A-F-Y-D-K-V-Aib-E-K-F-K-E-Aib-F-NH2] (HELM PEPTIDE1{[ac].D.W.F.K.A.F.Y.D.K.V.[Aib].E.K.F.K.E.[Aib].F.[am]}$$$$V2.0)", "values": [{"measurement": "NIH3T3 cell viability", "setting": "[1]", "result": "not affected"}, {"measurement": "flank tumor volume", "setting": "[2]", "result": 197, "unit": "mm^3"}, {"measurement": "flank tumor weight", "setting": "[2]", "result": 118, "unit": "mg"}, {"measurement": "Cell viability reduced by, compared with control", "setting": "[3]", "result": "more than 30%"}, {"measurement": "CT26 cell viability vs vehicle-treated controls", "setting": "[3]", "result": "reduced cell viability"}]}
{"molecule": "CC(C)C[C@@H](C=O)NC(=O)[C@H](CC(C)C)NC(=O)[C@H](CC(C)C)NC(=O)OCc1ccccc1", "note": "[MG-132, N-(benzyloxycarbonyl)leucinylleucinylleucinal-Z-Leu-Leu-Leu-al, reference compound] (Cbz-Leu-Leu-Leu-aldehyde)", "values": [{"measurement": "effect on the L-4F inhibition of insulin-mediated HIF-1α expression", "setting": "[4]", "result": "led to a reversal of the inhibitory effect of L-4F"}]}
{"molecule": "Ac-D-W-F-A-K-D-Y-F-K-K-A-F-V-E-E-F-A-K-NH2 (Ac-DWFAKDYFKKAFVEEFAK-NH2) [sc-4F, reference compound]", "values": [{"measurement": "flank tumor volume", "setting": "[2]", "result": 555, "unit": "mm^3"}, {"measurement": "flank tumor weight", "setting": "[2]", "result": 273, "unit": "mg"}, {"measurement": "flank tumor weights", "setting": "[2]; Example 5, 10 mg/kg subcutaneously daily for 15 days", "result": 778, "unit": "mg"}, {"measurement": "lung weights", "setting": "[5]; [8]", "result": 280, "unit": "mg"}, {"measurement": "tumor numbers counted on the lung surface", "setting": "[5]; [8]", "result": 33}, {"measurement": "lung weights", "setting": "[5]; [9]", "result": 296, "unit": "mg"}, {"measurement": "tumor numbers on the lung surface", "setting": "[5]; [9]", "result": 21}, {"measurement": "numbers of tumors of diameter 1-3 mm", "setting": "[6]", "result": 56.5}, {"measurement": "numbers of tumors of diameter >3 mm", "setting": "[6]", "result": 12.8}, {"measurement": "total tumor numbers in the intestinal tract, percent of the control", "setting": "[6]", "result": 100, "unit": "%"}]}
{"molecule": "Ac-LRKLRKRLLRDWLKAFYDKVAEKLKEAF-NH2 [28AA, LRKLRKRLLRDWLKAFYDKVAEKLKEAF, reference compound]", "values": [{"measurement": "NIH3T3 cell viability", "setting": "[1]", "result": "not affected"}, {"measurement": "flank tumor weight", "setting": "[2]", "result": 188, "unit": "mg"}, {"measurement": "Cell viability reduced by, compared with control", "setting": "[3]", "result": 70, "unit": "%"}]}
{"molecule": "ApoA-II: a protein that is also associated with HDL like apoA-I [reference compound]", "values": [{"measurement": "UV-induced cell death (cell viability)", "setting": "[7]", "result": "did not prevent UV-induced cell death"}]}
{"molecule": "ApoA-l: full-length and unmodified ApoA-I, typically human, a 28.2 kDa protein of 244 amino acids", "values": [{"measurement": "UV-induced cell death (cell viability)", "setting": "[7]", "result": "protects NIH3T3 cells from UV-induced cell death"}]}
{"molecule": "K4,15-4F2: SEQ ID NO: 28; K4,15-4F further modified with Aib substitution for alanine at positions 11 and 17 (DWFRAFYDKV[Aib]EKFRE[Aib]F)", "values": [{"measurement": "CT26 cell viability vs vehicle-treated controls", "setting": "[3]", "result": "reduced cell viability"}]}
{"molecule": "K4,15-4F: SEQ ID NO: 27; based on K14,15 peptides of Nayyar et al., lysines substituted with arginines at residues 4 and 15 (DWFRAFYDKVAEKFREAF; synthetic peptide mimetic)", "values": [{"measurement": "CT26 cell viability vs vehicle-treated controls", "setting": "[3]", "result": "reduced cell viability"}]}
{"molecule": "LRKLRKRLLR LVGRQLEEFL (LRKLRKRLLRLVGRQLEEFL; synthetic peptide mimetic) [20AA]", "values": [{"measurement": "CT26 cell viability vs vehicle-treated controls", "setting": "[3]", "result": "reduced cell viability"}]}
